Read-outs that look alike come from different tables or passages of the source.
Assays:
[1] = test system: Male Sprague Dawley rats; experiment: In situ rat intestinal injection: blood glucose; assay type: in vivo; settings: intraintestinal
Experimental: Male Sprague Dawley rats (Taconic, Ejby, Denmark) weighing ~250 g were allowed to acclimatize for at least 8 days at 20–22 °C and 45–65% humidity with free access to water and food. The rats were fasted for 18 h prior to surgery. Hypnorm (fentanyl 0.315 mg/mL and fluanisone 10 mg/mL) (Glostrup apotek, Glostrup, Denmark) and Dormicum (midazolam 5 mg/mL) (Nomeco, Copenhagen, Denmark) were mixed 1:1 (v/v) with ultrapure water and used for anesthesia. The initial dose was 2 mL/kg and subsequent doses of 1 mL/kg were given every 20 min within the first hour and thereafter every 40 min to keep the animals anaesthetized. All doses of anesthetics were administered subcutaneously in the neck region. The abdominal wall was cut open and the small intestine localized. A 10 cm PE-50 catheter (Smiths Medical, Keene, NH, USA) was inserted into the middle of the intestine and secured with a 3/0 suture (Braun, Tuttlingen, Germany). Care was taken not to interrupt the mesenteric blood flow. The intestine was hydrated with 1–2 mL isotonic sodium chloride solution before the rat abdominal wall was closed with 9 mm clips using the AutoClip Wound Closure System (Alzet, Cupertino, CA, USA). The animal was left on a 37 °C heating plate (Scandidact, Kvistgaard, Denmark) for 30 min prior dosing of the test samples to allow normalization of the potentially elevated blood glucose level resulting from stress induced by handling and surgery. […] A volume of 200 µL air was injected immediately after dosing to fully empty the catheter into the intestinal lumen. 200 µL blood samples were collected from the tail vein at time points 0, 5, 15, 30, 45, 60, 90, and 120 min into EDTA-coated microcuvette vials (Sarstedt, Nümbrecht, Germany). The blood samples were placed on ice prior isolation of the plasma by centrifugation at 2000× g at 4 °C for 10 min (Eppendorf centrifuge 5424, Eppendorf, Hamburg, Germany). Blood glucose was measured at time points of 15, 30, 45, 60, 90, and 120 min after dosing using an On-Call blood glucose meter (Acon, San Diego, CA, USA). After the final blood sampling, the animals were euthanized while still under anesthesia using 90% CO2 in O2 [19]. The abdominal wall of the rats was reopened after the experiment to ensure the catheter was still in place. Likewise, control of potential damage to the intestine was determined macroscopically. The experiments were conducted in strict compliance with the national animal research license 2009/561-1622.

[2] = ThT binding to supramolecular complexes, plate reader fluorescence; assay type: physicochemical; settings: all pH-values tested (5, 6.5, 7.4); 50 µM insulin or PTH(1-34) or 200 µM penetratin alone, 100 µM ThT; N = 3
[3] = no reference given; cited from earlier work
[4] = test system: Caco-2 cell monolayers; experiment: In vitro transepithelial permeation across Caco-2 cell monolayers; assay type: in vitro ADME, human; settings: Caco-2, apical to basolateral, 3 h, 37 °C, ELISA/EIA, N = 3, n = 3; for effect on permeation of lowering the sample pH from 6.5 or 7.4 to pH 5, without penetratin (in words): 5 µM peptide alone
Experimental: At 80% confluency the cells were sub-cultured by detaching them from the culture flasks by trypsin-EDTA treatment. […] Caco-2 cell monolayers were washed twice apical and basolateral with 37 °C hHBSS. The cells were equilibrated to room temperature in the last washing volume before TEER was measured using an EVOM equipped with an Endohm-12 cup (World Precision Instruments, Sarasota, FL, USA) and equilibration to 37 °C. […] The permeation study was initiated by careful transfer of the filter inserts to fresh 12-well plates containing 1 mL 37 °C hHBSS. The experiment was performed on a 37 °C shaking table (50 rpm). 100 µL test samples were withdrawn from the basolateral compartment at time-points 0, 60, 120 and 180 min and stored at −20 °C. The sample volume was immediately replaced with 37 °C hHBSS.

[5] = test system: Caco-2 cell monolayers; experiment: In vitro stability during apical incubation on Caco-2 cell monolayers; assay type: in vitro ADME, human; settings: 37 °C, RP-HPLC; for peptide remaining after 4 h in physical mixture with penetratin, % of initially applied: 5 µM peptide + 20 µM penetratin, N = 3, mean ± SD
Experimental: (§1) At 80% confluency the cells were sub-cultured by detaching them from the culture flasks by trypsin-EDTA treatment. […] [17]. Briefly, The Caco-2 cell monolayers were washed twice apical and basolateral with 37 °C hHBSS and equilibrated to room temperature in the last washing volume. The transepithelial electrical resistance (TEER) was measured using an EVOM equipped with an Endohm-12 cup (World Precision Instruments, Sarasota, FL, USA) to validate the barrier integrity of the monolayer. Following equilibration to 37 °C the filter inserts were transferred to empty 6-well plates in order to block permeation across the monolayer. […] The kinetics of the metabolic degradation was evaluated by analytical RP-HPLC as described under the ultracentrifugation procedure.

[6] = as above; assay type: in vitro ADME, human; settings: human, peptide alone, 5 µM, 37 °C, RP-HPLC, N = 3, mean ± SD, read-out: intact peptide remaining after 4 h, % of initial concentration
Experimental: as §1

[7] = In situ rat intestinal injection: plasma insulin or PTH(1-34); assay type: in vivo; settings: intraintestinal
Experimental: 100 μL test samples were withdrawn from the basolateral compartment at time-points 0, 60, 120 and 180 min and stored at -20 °C. The sample volume was immediately replaced with 37 °C hHBSS. […] Male Sprague Dawley rats (Taconic, Ejby, Denmark) weighing ~250 g were allowed to acclimatize for at least 8 days at 20-22 °C and 45-65% humidity with free access to water and food. The rats were fasted for 18 h prior to surgery. Hypnorm (fentanyl 0.315 mg/mL and fluanisone 10 mg/mL) (Glostrup apotek, Glostrup, Denmark) and Dormicum (midazolam 5 mg/mL) (Nomeco, Copenhagen, Denmark) were mixed 1:1 (v/v) with ultrapure water and used for anesthesia. The initial dose was 2 mL/kg and subsequent doses of 1 mL/kg were given every 20 min within the first hour and thereafter every 40 min to keep the animals anaesthetized. All doses of anesthetics were administered subcutaneously in the neck region. The abdominal wall was cut open and the small intestine localized. A 10 cm PE-50 catheter (Smiths Medical, Keene, NH, USA) was inserted into the middle of the intestine and secured with a 3/0 suture (Braun, Tuttlingen, Germany). Care was taken not to interrupt the mesenteric blood flow. The intestine was hydrated with 1-2 mL isotonic sodium chloride solution before the rat abdominal wall was closed with 9 mm clips using the AutoClip Wound Closure System (Alzet, Cupertino, CA, USA). […] The blood samples were placed on ice prior isolation of the plasma by centrifugation at 2000× g at 4 °C for 10 min (Eppendorf centrifuge 5424, Eppendorf, Hamburg, Germany). Blood glucose was measured at time points of 15, 30, 45, 60, 90, and 120 min after dosing using an On-Call blood glucose meter (Acon, San Diego, CA, USA). After the final blood sampling, the animals were euthanized while still under anesthesia using 90% CO2 in O2 [19]. The abdominal wall of the rats was reopened after the experiment to ensure the catheter was still in place. Likewise, control of potential damage to the intestine was determined macroscopically. The experiments were conducted in strict compliance with the national animal research license 2009/561-1622.

[8] = Visual inspection of samples at the concentrations applied in vivo; assay type: physicochemical; settings: PTH(1-34) mixed with penetratin
[9] = Size distribution by dynamic light scattering; assay type: physicochemical; settings: DLS, mHBSS pH 5, 25 °C, 180 µM insulin or PTH(1-34), alone or mixed with 720 µM penetratin, N = 3, mean ± SD
Experimental: Size distributions according to the distribution by volume were determined using a Zetasizer Nano ZSP (Malvern Instruments, Worcestershire, UK) equipped with a 633 nm laser at 25 °C with 10–20 runs of 10 s and N = 3.

[10] = insulin (50 IU/kg) alone or 720 µM penetratin alone, pH 5, N = 6, mean ± SD
[11] = apical pH 5, 5 µM peptide + 20 µM penetratin
[12] = apical pH 6.5 and 7.4, 5 µM peptide + 20 µM penetratin
[13] = pH 5, apical incubation on Caco-2 monolayers
[14] = pH 6.5, apical incubation on Caco-2 monolayers
[15] = pH 7.4, apical incubation on Caco-2 monolayers

Compound | blood glucose level, % of initial value [1, 10] | ThT fluorescence above background, peptide alone (in words) [2] | pI [3] | effect on permeation of lowering the sample pH from 6.5 or 7.4 to pH 5, without penetratin (in words) [4] | penetratin-mediated transepithelial permeation / Papp (in words) [4, 11] | penetratin-mediated transepithelial permeation / Papp (in words) [4, 12] | peptide remaining after 4 h in physical mixture with penetratin, % of initially applied [5, 13] [%] | peptide remaining after 4 h in physical mixture with penetratin, % of initially applied [5, 15] | further results
RQIKIWFQNRRMKWKK [penetratin] | did not affect | no pronounced increase | 12.3 | – | – | – | – | – | –
CC[C@H](C)[C@H](NC(=O)[C@H](CCC(=O)O)NC(=O)[C@H](CO)NC(=O)[C@@H](NC(=O)[C@@H](N)CO)C(C)C)C(=O)N[C@@H](CCC(N)=O)C(=O)N[C@@H](CC(C)C)C(=O)N[C@@H](CCSC)C(=O)N[C@@H](Cc1cnc[nH]1)C(=O)N[C@@H](CC(N)=O)C(=O)N[C@@H](CC(C)C)C(=O)NCC(=O)N[C@@H](CCCCN)C(=O)N[C@@H](Cc1cnc[nH]1)C(=O)N[C@@H](CC(C)C)C(=O)N[C@@H](CC(N)=O)C(=O)N[C@@H](CO)C(=O)N[C@@H](CCSC)C(=O)N[C@@H](CCC(=O)O)C(=O)N[C@@H](CCCN=C(N)N)C(=O)N[C@H](C(=O)N[C@@H](CCC(=O)O)C(=O)N[C@@H](Cc1c[nH]c2ccccc12)C(=O)N[C@@H](CC(C)C)C(=O)N[C@@H](CCCN=C(N)N)C(=O)N[C@@H](CCCCN)C(=O)N[C@@H](CCCCN)C(=O)N[C@@H](CC(C)C)C(=O)N[C@@H](CCC(N)=O)C(=O)N[C@@H](CC(=O)O)C(=O)N[C@H](C(=O)N[C@@H](Cc1cnc[nH]1)C(=O)N[C@@H](CC(N)=O)C(=O)N[C@@H](Cc1ccccc1)C(=O)O)C(C)C)C(C)C [PTH(1-34)] | – | no pronounced increase | 8.3 | did not increase | increase | no significant increase | 72.4 ± 3.0 | 69.9 ± 2.7% | peptide remaining after 4 h in physical mixture with penetratin, % of initially applied [5, 14]: 67.0 ± 2.6%; remaining at 4 h, 5 µM [6, 13]: 66.6 ± 8.5%; remaining at 4 h, 5 µM [6, 14]: 71.7 ± 7.1%; remaining at 4 h, 5 µM [6, 15]: 73.6 ± 9.1%; pH-dependent trend of penetratin-mediated delivery, Cmax of plasma PTH(1-34) and AUC ([7]; PTH(1-34) 1.2 mg/kg + penetratin 1:4, N = 6): pH 5 > pH 6.5 > pH 7.4; visible precipitation on mixing with penetratin (in words) [8]: not evident
insulin: Human recombinant insulin (5807.6 g/mol, Zn-free) provided by Sanofi | 86.9 ± 6.0% | increase | – | did not increase | increase | no significant increase | 89.9 ± 11.2 | remained stable | blood glucose level, % of initial value ([1]; insulin 50 IU/kg in physical mixture with 720 µM penetratin (1:4), pH 5, 60 min time-point, N = 6, mean ± SD): 38.5 ± 23.8%; blood glucose level, % of initial value ([1]; insulin 50 IU/kg in physical mixture with 720 µM penetratin (1:4), pH 6.5, after 60 min, N = 6, mean ± SD): 71.1 ± 17.8%; blood glucose level, % of initial value ([1]; insulin 50 IU/kg in physical mixture with 720 µM penetratin (1:4), pH 7.4, after 60 min, N = 6, mean ± SD): 83.3 ± 21.2%; blood glucose level, % of initial value ([1]; insulin (50 IU/kg) alone, pH 6.5, N = 6, mean ± SD): 88.9 ± 11.1%; blood glucose level (in words) ([1]; insulin (50 IU/kg) alone, pH 7.4, N = 6): did not affect; stability during incubation for 4 h (in words) ([5]; 5 µM insulin alone, pH 5, 6.5, or 7.4, apical incubation on Caco-2 monolayers, N = 3): remained stable; plasma insulin concentration and AUC on co-administration with penetratin (in words) ([7]; insulin 50 IU/kg + penetratin 1:4, pH 5, compared to pH 6.5 and 7.4, N = 6): greatest effect; plasma insulin concentration and AUC on co-administration with penetratin (in words) ([7]; insulin 50 IU/kg + penetratin 1:4, pH 6.5, N = 6): slight increase; plasma insulin concentration and AUC on co-administration with penetratin (in words) ([7]; insulin 50 IU/kg + penetratin 1:4, pH 7.4, N = 6): did not differ from administration of insulin alone; volume mean size [9]: 1579 ± 319 nm

From publication PMC7589992 (Pharmaceutics, 2020)
